Laboratory results: US20100105904A1, “UREA TYPE CINNAMIDE DERIVATIVE” (priority 2006, published 2010)

Test system: Aβ42 production
Assay: Quantification of Aβ peptide in neuronal culture from rat fetus brain (Aβ ELISA)
Type: cell-based
Conditions: 72 h; rat primary neuronal culture (cerebral cortex, embryonic day 18 Wistar rats); medium collected three days after addition of compound; Aβx-42 ELISA; read-out: Aβ42 production reducing effect IC50
Description: Quantification of Aβ Peptide in Neuronal Culture from Rat Fetus Brain
Primary neuronal cultures were prepared from the cerebral cortex of embryonic day 18 Wistar rats (Charles River Japan, Yokohama, Japan). Specifically, the embryos were aseptically removed from pregnant rats under ether anesthesia. The brain was isolated from the embryo and immersed in an ice-cold L-15 medium (such as Invitrogen Corp. Cat #11415-064, Carlsbad, Calif., USA, or SIGMA L1518). The cerebral cortex was collected from the isolated brain under a stereoscopic microscope. The cerebral cortex fragments collected were enzymatically treated in an enzyme solution containing 0.25% trypsin (Invitrogen Corp. Cat #15050-065, Carlsbad, Calif., USA) and 0.01% DNase (Sigma D5025, St. Louis, Mo., USA) at 37° C. for 30 minutes to disperse the cells. Here, the enzymatic reaction was stopped by adding inactivated horse serum to the solution. The enzymatically treated solution was centrifuged at 1,500 rpm for five minutes to remove the supernatant. 5 to 10 ml of a medium was added to the resulting cell mass. Neurobasal medium (Invitrogen Corp. Cat #21103-049, Carlsbad, Calif., USA) supplemented with 2% B27 supplement (Invitrogen Corp. Cat #17504-044, Carlsbad, Calif., USA), 25 μM 2-mercaptoethanol (2-ME, WAKO Cat #139-06861, Osaka, Japan), 0.5 mM L-glutamine (Invitrogen Corp. Cat #25030-081, Carlsbad, Calif., USA), and Antibiotics-Antimycotics (Invitrogen Corp. Cat #15240-062, Carlsbad, Calif., USA) was used as the medium (Neurobasal/B27/2-ME). However, the above Neurobasal medium not supplemented with 2-ME (Neurobasal/B27) was used for the assay. The cells were redispersed by mild pipetting of the cell mass to which the medium was added. The cell dispersion was filtered through a 40-μm nylon mesh (Cell Strainer, Cat #35-2340, Becton Dickinson Labware, Franklin Lakes, N.J., USA) to remove the remaining cell mass, and thus a neuronal cell suspension was obtained. The neuronal cell suspension was diluted with the medium and then plated in a volume of 100 μl/well at an initial cell density of 5×10^5 cells/cm^2 in a 96-well polystyrene culture plate pre-coated with poly-L or D-lysine (Falcon Cat #35-3075, Becton Dickinson Labware, Franklin Lakes, N.J., USA coated with poly-L-lysine using the method shown below, or BIOCOAT™ cell environments Poly-D-lysine cell ware 96-well plate, Cat #35-6461, Becton Dickinson Labware, Franklin Lakes, N.J., USA). Poly-L-lysine coating was carried out as follows. 100 μg/ml of a poly-L-lysine (SIGMA P2636, St. Louis, Mo., USA) solution was aseptically prepared with a 0.15 M borate buffer (pH 8.5). […] of the solution was added to the 96-well polystyrene culture plate and incubated at room temperature for one or more hours or at 4° C. overnight or longer. The coated 96-well polystyrene culture plate was washed with sterile water four or more times, and then dried or rinsed with, for example, sterile PBS or medium, and used for cell plating. The plated cells were cultured in the culture plate at 37° C. in 5% CO2-95% air for one day. Then, the total amount of the medium was replaced with a fresh Neurobasal™/B27/2-ME medium, and then the cells were cultured for further three days.
The drug was added to the culture plate on Day 4 of culture as follows. The total amount of the medium was removed from the wells, and 180 μl/well of Neurobasal medium not containing 2-ME and containing 2% B-27 (Neurobasal/B27) was added thereto. A solution of the test compound in dimethyl sulfoxide (hereinafter abbreviated as DMSO) was diluted with Neurobasal/B27 to a concentration 10-fold higher than the final concentration. 20 μl/well of the dilution was added to and sufficiently mixed with the medium. The final DMSO concentration was 1% or less. Only DMSO was added to the control group.
The cells were cultured for three days after addition of the compound, and the total amount of the medium was collected. The resulting medium was used as an ELISA sample. […]

COc1cc(NC(=O)NCC2c3ccccc3-c3ccccc32)ccc1-n1ccnc1 [Example 6, 1-(9H-fluoren-9-ylmethyl)-3-[4-(1H-imidazol-1-yl)-3-methoxyphenyl]urea]
IC50: 5200 nM

COc1cc(NC(=O)NCCC(c2ccccc2)c2ccccc2)ccc1-n1cnc(C)c1 [Example 24, 1-(3,3-diphenylpropyl)-3-[3-methoxy-4-(4-methyl-1H-imidazol-1-yl)phenyl]urea monotrifluoroacetate]
IC50: 220 nM

COc1cc(NC(=O)NCCc2ccc(Cl)c(Cl)c2)ccc1-n1cnc(C)c1 [Example 11, 1-[2-(3,4-dichlorophenyl)ethyl]-3-[3-methoxy-4-(4-methyl-1H-imidazol-1-yl)phenyl]urea]
IC50: 970 nM

COc1cc(NC(=O)NCc2cc(F)c(F)c(F)c2)ccc1-n1cnc(C)c1 [Example 19, 1-[3-methoxy-4-(4-methyl-1H-imidazol-1-yl)phenyl]-3-(3,4,5-trifluorobenzyl)urea monotrifluoroacetate]
IC50: 2070 nM

COc1cc(NC(=O)NC[C@H](O)c2ccccc2)ccc1-n1cnc(C)c1 [Example 29, 1-(R)-2-hydroxy-2-phenylethyl-3-[3-methoxy-4-(4-methyl-1H-imidazol-1-yl)phenyl]urea]
IC50: 3840 nM

COc1cc(NC(=O)NCC(C)(C)c2ccccc2)ccc1-n1cnc(C)c1 [Example 27, 1-[3-methoxy-4-(4-methyl-1H-imidazol-1-yl)phenyl]-3-(2-methyl-2-phenylpropyl)urea monotrifluoroacetate]
IC50: 540 nM

COc1cc(NC(=O)N2CCCC(c3ccccc3)C2)ccc1-n1cnc(C)c1 (centres unmarked) [Example 21, 3-phenyl-piperidine-1-carboxylic acid [3-methoxy-4-(4-methyl-1H-imidazol-1-yl)phenyl]amide monotrifluoroacetate]
IC50: 1660 nM

COc1cc(NC(=O)NCCCc2ccc(C3CCCCC3)cc2)ccc1-n1cnc(C)c1 [Example 26, 1-[3-(4-cyclohexyl-phenyl)propyl]-3-[3-methoxy-4-(4-methyl-1H-imidazol-1-yl)phenyl]urea monotrifluoroacetate]
IC50: 230 nM

COc1cc(NC(=O)NCc2ccc(Cl)c(Cl)c2)ccc1-n1cnc(C)c1 [Example 8, 1-(3,4-dichlorobenzyl)-3-[3-methoxy-4-(4-methyl-1H-imidazol-1-yl)phenyl]urea]
IC50: 1710 nM

COc1cc(NC(=O)NCC2(c3ccccc3)Cc3ccccc3C2)ccc1-n1cnc(C)c1 [Example 15, 1-[3-methoxy-4-(4-methyl-1H-imidazol-1-yl)phenyl]-3-(2-phenyl-indan-2-ylmethyl)urea monotrifluoroacetate]
IC50: 160 nM

COc1cc(NC(=O)N[C@@H](C)c2ccc(F)cc2)ccc1-n1cnc(C)c1 [Example 10, 1-[(S)-1-(4-fluorophenyl)ethyl]-3-[3-methoxy-4-(4-methyl-1H-imidazol-1-yl)phenyl]urea]
IC50: 1220 nM

COc1cc(NC(=O)N[C@@H](CO)Cc2ccccc2)ccc1-n1cnc(C)c1 [Example 23, 1-((R)-1-hydroxymethyl-2-phenylethyl)-3-[3-methoxy-4-(4-methyl-1H-imidazol-1-yl)phenyl]urea]
IC50: 1050 nM

COc1cc(NC(=O)NC(Cc2ccccc2)c2ccccc2)ccc1-n1cnc(C)c1 (centres unmarked) [Example 17, 1-(1,2-diphenyl-ethyl)-[3-methoxy-4-(4-methyl-1H-imidazol-1-yl)phenyl]urea monotrifluoroacetate]
IC50: 560 nM

COc1cc(NC(=O)N2CCCCC2CCc2ccccc2F)ccc1-n1cnc(C)c1 (centres unmarked) [Example 16, 2-[2-(2-fluorophenyl)ethyl]piperidine-1-carboxylic acid [3-methoxy-4-(4-methyl-1H-imidazol-1-yl)phenyl]amide monotrifluoroacetate]
IC50: 1420 nM

COc1cc(NC(=O)N2CCC(c3ccccc3)CC2)ccc1-n1cnc(C)c1 [Example 20, 4-phenyl-piperidine-1-carboxylic acid [3-methoxy-4-(4-methyl-1H-imidazo1-1-yl)phenyl]amide monotrifluoroacetate]
IC50: 1610 nM

COc1cc(NC(=O)NCC(c2ccccc2)c2ccccc2)ccc1-n1cnc(C)c1 [Example 25, 1-(2,2-diphenylethyl)-3-[3-methoxy-4-(4-methyl-1H-imidazol-1-yl)phenyl]urea monotrifluoroacetate]
IC50: 190 nM

COc1cc(NC(=O)NCCCc2ccccc2)ccc1-n1cnc(C)c1 [Example 18, 1-[3-methoxy-4-(4-methyl-1H-imidazol-1-yl)phenyl]-3-(3-phenylpropyl)urea monotrifluoroacetate]
IC50: 860 nM
